Laboratory results taken from ChEMBL document CHEMBL2396543, “Development of time resolved fluorescence resonance energy transfer-based assay for FXR antagonist discovery” (Bioorg Med Chem, 2013).
The source made the active and inactive calls.

How the values were obtained:
[1] = target: T1, Bile acid receptor (Homo sapiens) (UniProt Q96RI1); assay: Binding affinity to human GTS-tagged FXR LBD using fluorescein-tagged SRC2-2 at 10 nM after 15 to 30 mins by TR-FRET assay
T1 sequence (whole entry): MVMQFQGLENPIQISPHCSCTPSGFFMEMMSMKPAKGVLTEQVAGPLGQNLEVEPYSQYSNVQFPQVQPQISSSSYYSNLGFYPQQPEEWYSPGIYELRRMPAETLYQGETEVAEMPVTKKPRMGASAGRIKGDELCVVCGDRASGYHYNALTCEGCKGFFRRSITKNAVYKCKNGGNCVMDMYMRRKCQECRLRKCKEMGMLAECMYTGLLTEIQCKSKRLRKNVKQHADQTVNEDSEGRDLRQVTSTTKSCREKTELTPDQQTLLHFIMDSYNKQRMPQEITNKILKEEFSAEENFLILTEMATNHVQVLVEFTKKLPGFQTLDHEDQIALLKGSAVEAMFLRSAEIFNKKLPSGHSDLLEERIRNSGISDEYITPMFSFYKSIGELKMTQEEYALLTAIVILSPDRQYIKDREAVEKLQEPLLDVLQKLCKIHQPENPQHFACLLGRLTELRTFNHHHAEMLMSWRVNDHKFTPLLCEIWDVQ

[2] = target: T1, Bile acid receptor (Homo sapiens); assay: Binding affinity to human GTS-tagged FXR LBD using fluorescein-tagged SRC2-2 at 10 nM after 15 to 30 mins by TR-FRET assay in presence of GW4064
[3] = target: T1, Bile acid receptor (Homo sapiens); assay: Binding affinity to human GTS-tagged FXR LBD using fluorescein-tagged SRC2-2 at 10 nM after 15 to 30 mins by TR-FRET assay in presence of fexaramine

Measured: Activity

CC(C)c1onc(-c2c(Cl)cccc2Cl)c1COc1ccc(/C=C/c2cccc(C(=O)NNC(=S)Nc3ccc(-c4c5ccc(=O)cc-5oc5cc(O)ccc45)c(C(=O)O)c3)c2)c(Cl)c1
active: [1] | [2] | [3]
